Assay results: patent US12240816B2, “Deuterated compounds and uses thereof” (Aldeyra Therapeutics, Inc., priority 2015, dated 2025)
Like-named read-outs stand apart in the source and are kept apart here.

Columns and labels:
Format in all cases: biochemical
guanylyl cyclase (h) = guanylyl cyclase (h) (Homo sapiens, UniProt Q02108+Q02153); conditions: guanylyl cyclase (h) (activator effect); 1.0E−05M
[1] = system: enzyme and uptake assay panel targets (Table 36); assay: biochemical; conditions: COMT (catechol-O-methyl transferase); 1.0E−05M; flag INTER: Test compound interferes with the assay detection method
[2] = target: enzyme and uptake assay panel targets (Table 36) (Homo sapiens, UniProt P08253); assay: biochemical; conditions: MMP-2 (h); 1.0E−05M
[3] = target: enzyme and uptake assay panel targets (Table 36) (Homo sapiens, UniProt O00408); assay: biochemical; conditions: PDE2A1 (h); 1.0E−05M
[4] = target: enzyme and uptake assay panel targets (Table 36) (Homo sapiens, UniProt Q14790); assay: biochemical; conditions: caspase-8 (h); 1.0E−05M
[5] = target: enzyme and uptake assay panel targets (Table 36) (Homo sapiens, UniProt Q16539); assay: biochemical; conditions: p38α kinase (h); 1.0E−05M
[6] = target: enzyme and uptake assay panel targets (Table 36) (Homo sapiens, UniProt Q9UQM7); assay: biochemical; conditions: CaMK2α (h); 1.0E−05M
[7] = target: enzyme and uptake assay panel targets (Table 36) (Homo sapiens, UniProt P35354); assay: biochemical; conditions: COX2(h); 1.0E−05M
[8] = target: enzyme and uptake assay panel targets (Table 36) (Homo sapiens, UniProt O76074); assay: biochemical; conditions: PDE5 (h) (non-selective); 1.0E−05M
[9] = target: enzyme and uptake assay panel targets (Table 36) (Homo sapiens, UniProt P06241); assay: biochemical; conditions: Fyn kinase (h); 1.0E−05M
[10] = target: T1, enzyme and uptake assay panel targets (Table 36) (Bos taurus, UniProt P80457); assay: biochemical; conditions: xanthine oxldase/superoxide 02 ^−scavenging, 1.0E−05M
T1 construct: other: xanthine oxidase/superoxide 02^−scavenging; nH; other: xanthine oxldase/superoxide 02 ^−scavenging; 1.0E−05M; ot; purified xanthine oxidase from bovine milk

[11] = target: enzyme and uptake assay panel targets (Table 36) (Homo sapiens, UniProt P12821); assay: biochemical; conditions: ACE (h); 1.0E−05M; flag INTER: Test compound interferes with the assay detection method
[12] = target: enzyme and uptake assay panel targets (Table 36) (Homo sapiens, UniProt P56817); assay: biochemical; conditions: BACE-1 (h) (β-secretase); 1.0E−05M; flag INTER: Test compound interferes with the assay detection method
[13] = target: enzyme and uptake assay panel targets (Table 36) (Homo sapiens, UniProt P18054); assay: biochemical; conditions: 12-lipoxygenase (h); 1.0E−05M
[14] = target: enzyme and uptake assay panel targets (Table 36) (Homo sapiens, UniProt Q9BYF1); assay: biochemical; conditions: ACE-2 (h); 1.0E−05M; flag INTER: Test compound interferes with the assay detection method
[15] = target: enzyme and uptake assay panel targets (Table 36) (Homo sapiens, UniProt P24941); assay: biochemical; conditions: CDK2 (h) (cycA); 1.0E−05M
[16] = target: enzyme and uptake assay panel targets (Table 36) (Homo sapiens, UniProt P06213); assay: biochemical; conditions: IRK (h)(InsR); 1.0E−05M
[17] = target: enzyme and uptake assay panel targets (Table 36) (Homo sapiens, UniProt P07948); assay: biochemical; conditions: Lyn A kinase (h); 1.0E−05M
[18] = target: enzyme and uptake assay panel targets (Table 36) (Homo sapiens, UniProt P43403); assay: biochemical; conditions: ZAP70 kinase (h); 1.0E−05M
[19] = target: enzyme and uptake assay panel targets (Table 36) (Homo sapiens, UniProt P03956); assay: biochemical; conditions: MMP-1 (h); 1.0E−05M; flag INTER: Test compound interferes with the assay detection method
[20] = target: enzyme and uptake assay panel targets (Table 36) (Homo sapiens, UniProt P42574); assay: biochemical; conditions: caspase-3 (h); 1.0E−05M
[21] = system: T2, enzyme and uptake assay panel targets (Table 36); assay: biochemical; conditions: ATPase (Na+/K+); 1.0E−05M
T2 construct: other: ATPase (Na+/K+); 1.0E−05M; nH; porcine cerebral cortex

Chain of enzyme and uptake assay panel targets (Table 36) (Homo sapiens, UniProt Q9UQM7) (Q9UQM7 whole entry): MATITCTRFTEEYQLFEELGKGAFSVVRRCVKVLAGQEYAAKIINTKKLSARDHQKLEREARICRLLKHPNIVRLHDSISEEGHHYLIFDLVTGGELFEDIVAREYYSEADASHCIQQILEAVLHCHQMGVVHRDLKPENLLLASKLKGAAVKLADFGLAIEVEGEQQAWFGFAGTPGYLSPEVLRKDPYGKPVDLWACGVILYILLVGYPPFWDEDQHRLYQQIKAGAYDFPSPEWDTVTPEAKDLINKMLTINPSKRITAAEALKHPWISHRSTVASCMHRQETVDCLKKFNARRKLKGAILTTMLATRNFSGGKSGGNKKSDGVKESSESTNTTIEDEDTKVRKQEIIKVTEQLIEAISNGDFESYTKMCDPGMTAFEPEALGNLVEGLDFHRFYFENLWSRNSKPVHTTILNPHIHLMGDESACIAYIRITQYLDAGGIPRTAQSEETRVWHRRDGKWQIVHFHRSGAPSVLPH
Chain of enzyme and uptake assay panel targets (Table 36) (Homo sapiens, UniProt Q16539) (Q16539 whole entry): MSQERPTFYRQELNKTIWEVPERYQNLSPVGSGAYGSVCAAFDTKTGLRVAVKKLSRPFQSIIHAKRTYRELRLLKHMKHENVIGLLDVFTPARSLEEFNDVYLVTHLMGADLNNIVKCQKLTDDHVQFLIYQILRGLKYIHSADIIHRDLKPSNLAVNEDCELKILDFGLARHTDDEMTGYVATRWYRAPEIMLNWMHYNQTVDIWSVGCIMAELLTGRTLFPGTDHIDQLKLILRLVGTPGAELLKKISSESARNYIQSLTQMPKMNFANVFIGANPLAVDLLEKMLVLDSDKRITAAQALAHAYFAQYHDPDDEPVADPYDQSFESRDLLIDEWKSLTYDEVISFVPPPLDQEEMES
Chain of enzyme and uptake assay panel targets (Table 36) (Homo sapiens, UniProt P18054) (P18054 whole entry): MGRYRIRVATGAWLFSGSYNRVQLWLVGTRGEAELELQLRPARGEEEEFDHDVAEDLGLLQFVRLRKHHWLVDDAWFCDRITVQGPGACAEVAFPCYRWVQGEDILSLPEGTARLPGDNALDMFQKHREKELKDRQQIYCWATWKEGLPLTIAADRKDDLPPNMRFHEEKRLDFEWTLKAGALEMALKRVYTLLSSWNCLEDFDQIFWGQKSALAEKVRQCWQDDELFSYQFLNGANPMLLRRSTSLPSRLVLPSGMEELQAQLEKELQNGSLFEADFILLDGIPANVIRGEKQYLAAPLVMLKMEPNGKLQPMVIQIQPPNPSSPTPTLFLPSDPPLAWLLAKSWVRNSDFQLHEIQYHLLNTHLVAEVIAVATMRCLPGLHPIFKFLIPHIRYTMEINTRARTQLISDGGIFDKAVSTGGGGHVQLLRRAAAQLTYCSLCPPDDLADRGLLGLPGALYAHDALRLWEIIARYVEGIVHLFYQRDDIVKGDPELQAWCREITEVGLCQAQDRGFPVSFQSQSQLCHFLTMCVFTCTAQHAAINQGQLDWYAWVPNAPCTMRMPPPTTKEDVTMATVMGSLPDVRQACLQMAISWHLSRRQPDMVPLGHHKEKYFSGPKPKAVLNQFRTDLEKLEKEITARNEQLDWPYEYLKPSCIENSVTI
Chain of enzyme and uptake assay panel targets (Table 36) (Homo sapiens, UniProt P03956) (P03956 100-469): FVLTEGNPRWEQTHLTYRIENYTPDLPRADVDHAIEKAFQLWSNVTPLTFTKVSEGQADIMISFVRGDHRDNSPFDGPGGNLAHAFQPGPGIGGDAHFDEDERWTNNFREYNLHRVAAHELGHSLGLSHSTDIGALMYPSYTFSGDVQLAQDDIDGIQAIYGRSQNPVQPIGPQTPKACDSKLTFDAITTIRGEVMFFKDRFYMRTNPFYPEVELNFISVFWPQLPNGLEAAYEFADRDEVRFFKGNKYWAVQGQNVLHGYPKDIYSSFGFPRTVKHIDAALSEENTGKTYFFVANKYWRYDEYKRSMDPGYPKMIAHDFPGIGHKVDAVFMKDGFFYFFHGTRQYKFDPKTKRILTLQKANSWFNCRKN
T1 sequence (P80457 whole entry): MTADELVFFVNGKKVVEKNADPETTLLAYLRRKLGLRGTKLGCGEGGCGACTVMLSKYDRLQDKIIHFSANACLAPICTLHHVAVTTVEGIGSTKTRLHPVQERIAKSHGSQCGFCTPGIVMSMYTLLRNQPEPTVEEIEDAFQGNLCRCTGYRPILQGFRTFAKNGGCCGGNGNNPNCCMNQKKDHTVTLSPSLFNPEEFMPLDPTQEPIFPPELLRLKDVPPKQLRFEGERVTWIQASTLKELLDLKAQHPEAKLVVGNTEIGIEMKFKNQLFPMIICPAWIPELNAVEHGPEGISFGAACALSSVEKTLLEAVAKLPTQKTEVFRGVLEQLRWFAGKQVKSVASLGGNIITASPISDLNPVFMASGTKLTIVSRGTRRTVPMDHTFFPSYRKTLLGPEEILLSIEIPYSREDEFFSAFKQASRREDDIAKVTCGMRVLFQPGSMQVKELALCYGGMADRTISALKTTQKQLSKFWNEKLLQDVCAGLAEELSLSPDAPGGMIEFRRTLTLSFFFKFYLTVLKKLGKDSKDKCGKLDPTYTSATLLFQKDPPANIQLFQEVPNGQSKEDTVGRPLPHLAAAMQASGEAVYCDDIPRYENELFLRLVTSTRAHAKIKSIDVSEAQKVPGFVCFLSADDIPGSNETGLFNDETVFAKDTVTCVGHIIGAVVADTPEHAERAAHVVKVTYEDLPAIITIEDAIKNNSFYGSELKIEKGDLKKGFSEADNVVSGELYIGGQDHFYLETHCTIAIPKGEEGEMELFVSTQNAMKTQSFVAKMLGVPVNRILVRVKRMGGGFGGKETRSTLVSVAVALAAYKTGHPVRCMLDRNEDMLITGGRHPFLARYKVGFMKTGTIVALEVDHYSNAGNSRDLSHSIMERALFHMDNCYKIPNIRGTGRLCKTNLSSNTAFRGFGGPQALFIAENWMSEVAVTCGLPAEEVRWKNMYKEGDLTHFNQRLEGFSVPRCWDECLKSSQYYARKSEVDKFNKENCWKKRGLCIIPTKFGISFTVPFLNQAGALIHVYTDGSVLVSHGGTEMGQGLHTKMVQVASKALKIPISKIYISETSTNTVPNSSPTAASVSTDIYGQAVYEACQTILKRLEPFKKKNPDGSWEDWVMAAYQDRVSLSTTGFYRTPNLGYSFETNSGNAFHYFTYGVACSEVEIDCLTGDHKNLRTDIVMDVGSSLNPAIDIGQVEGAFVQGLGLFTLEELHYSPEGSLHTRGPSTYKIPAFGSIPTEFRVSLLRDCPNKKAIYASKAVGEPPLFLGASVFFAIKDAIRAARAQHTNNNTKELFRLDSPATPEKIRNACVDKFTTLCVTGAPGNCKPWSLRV
Chain of guanylyl cyclase (h) (Q02153 whole entry): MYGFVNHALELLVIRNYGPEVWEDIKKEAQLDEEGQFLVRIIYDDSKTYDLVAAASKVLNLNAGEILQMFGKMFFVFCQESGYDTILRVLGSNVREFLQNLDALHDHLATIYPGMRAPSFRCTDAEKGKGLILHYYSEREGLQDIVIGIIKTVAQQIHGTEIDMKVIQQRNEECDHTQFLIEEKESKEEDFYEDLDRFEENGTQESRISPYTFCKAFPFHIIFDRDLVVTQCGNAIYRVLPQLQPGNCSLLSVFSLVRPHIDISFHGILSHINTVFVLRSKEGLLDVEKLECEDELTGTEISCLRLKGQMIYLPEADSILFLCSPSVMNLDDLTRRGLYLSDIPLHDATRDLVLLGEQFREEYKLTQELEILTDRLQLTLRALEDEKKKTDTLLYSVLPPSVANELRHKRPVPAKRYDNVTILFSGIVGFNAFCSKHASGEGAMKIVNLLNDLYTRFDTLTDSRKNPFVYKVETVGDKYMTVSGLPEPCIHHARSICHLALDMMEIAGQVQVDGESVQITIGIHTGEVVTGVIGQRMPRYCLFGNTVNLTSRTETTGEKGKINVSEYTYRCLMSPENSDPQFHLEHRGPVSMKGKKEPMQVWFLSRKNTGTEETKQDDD
Chain of guanylyl cyclase (h) (Q02108 whole entry): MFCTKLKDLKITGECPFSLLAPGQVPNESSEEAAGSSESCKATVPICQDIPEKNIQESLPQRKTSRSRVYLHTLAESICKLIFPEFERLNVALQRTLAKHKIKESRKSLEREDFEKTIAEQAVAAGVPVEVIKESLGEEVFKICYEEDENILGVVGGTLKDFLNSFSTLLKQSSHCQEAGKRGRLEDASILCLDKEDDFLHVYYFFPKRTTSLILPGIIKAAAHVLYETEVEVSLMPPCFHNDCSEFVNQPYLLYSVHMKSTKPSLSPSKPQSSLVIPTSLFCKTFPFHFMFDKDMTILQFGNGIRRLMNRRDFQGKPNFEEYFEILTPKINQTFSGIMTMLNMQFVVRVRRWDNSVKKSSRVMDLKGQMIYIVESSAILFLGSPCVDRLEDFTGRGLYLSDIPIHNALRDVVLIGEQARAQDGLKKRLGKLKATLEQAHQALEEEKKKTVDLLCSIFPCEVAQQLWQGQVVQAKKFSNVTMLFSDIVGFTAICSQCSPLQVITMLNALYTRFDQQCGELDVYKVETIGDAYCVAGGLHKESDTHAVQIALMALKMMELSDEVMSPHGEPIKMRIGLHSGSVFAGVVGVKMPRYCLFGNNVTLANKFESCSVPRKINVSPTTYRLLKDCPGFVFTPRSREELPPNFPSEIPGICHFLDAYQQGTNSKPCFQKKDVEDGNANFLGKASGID
Chain of enzyme and uptake assay panel targets (Table 36) (Homo sapiens, UniProt P07948) (P07948 whole entry): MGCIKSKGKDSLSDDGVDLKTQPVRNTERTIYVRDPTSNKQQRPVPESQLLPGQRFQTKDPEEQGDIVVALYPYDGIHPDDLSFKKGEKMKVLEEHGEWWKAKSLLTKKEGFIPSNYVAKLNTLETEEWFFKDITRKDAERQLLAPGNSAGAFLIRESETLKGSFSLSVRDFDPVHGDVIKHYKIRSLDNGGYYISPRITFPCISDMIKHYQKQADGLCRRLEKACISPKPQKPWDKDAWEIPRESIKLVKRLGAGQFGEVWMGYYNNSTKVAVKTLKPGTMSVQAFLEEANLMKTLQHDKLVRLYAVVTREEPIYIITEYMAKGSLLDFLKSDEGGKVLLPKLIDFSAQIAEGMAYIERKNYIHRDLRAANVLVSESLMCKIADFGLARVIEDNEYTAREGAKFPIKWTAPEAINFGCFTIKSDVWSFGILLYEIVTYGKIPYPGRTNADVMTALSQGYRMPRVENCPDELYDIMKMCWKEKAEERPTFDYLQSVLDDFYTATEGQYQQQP

Q: How did the “% of Control Values 1st” value (guanylyl cyclase (h)) turn out when `[2H]C([2H])([2H])C(O)(c1nc2ccc(Cl)cc2cc1N)C([2H])([2H])[2H]` [Compound I-1] was run?
A: Its value is 0.2%.

Q: What about the “% of Control Values 2nd” value (guanylyl cyclase (h)) of the same compound?
A: The value was 0.3%.

Q: And the “% of Control Values Mean” value (guanylyl cyclase (h))?
A: Its value is 0.2%.

Q: What about the “% inhibition of Control Values 1st” value [1] of the same compound?
A: The value was 5.8%.

Q: And the “% inhibition of Control Values 2nd” value [1]?
A: Its value is 14.7%.

Q: What about the “% inhibition of Control Values Mean” value [1] of the same compound?
A: Its value is 10.3%.

Q: What about the “% inhibition of Control Values 1st” value [2] of the same compound?
A: The value was 4.9%.

Q: And the “% inhibition of Control Values 2nd” value [2]?
A: Its value is −2.4%.

Q: And the “% inhibition of Control Values Mean” value [2]?
A: The value was 1.3%.

Q: What about the “% inhibition of Control Values 1st” value [3] of the same compound?
A: The value was 17.1%.

Q: And the “% inhibition of Control Values 2nd” value [3]?
A: Its value is −24.5%.

Q: What about the “% inhibition of Control Values Mean” value [3] of the same compound?
A: The value was −3.7%.

Q: And the “% inhibition of Control Values 1st” value [4]?
A: The value was 14.7%.

Q: And the “% inhibition of Control Values 2nd” value [4]?
A: The value was 16.4%.

Q: And the “% inhibition of Control Values Mean” value [4]?
A: The value was 15.6%.

Q: What about the “% inhibition of Control Values 1st” value [5] of the same compound?
A: The value was −3.2%.

Q: And the “% inhibition of Control Values 2nd” value [5]?
A: Its value is −3.1%.

Q: What about the “% inhibition of Control Values Mean” value [5] of the same compound?
A: Its value is −3.2%.

Q: And the “% inhibition of Control Values 1st” value [6]?
A: The value was 0.2%.

Q: What about the “% inhibition of Control Values 2nd” value [6] of the same compound?
A: Its value is −6.5%.

Q: What about the “% inhibition of Control Values Mean” value [6] of the same compound?
A: The value was −3.1%.

Q: What about the “% inhibition of Control Values 1st” value [7] of the same compound?
A: Its value is 12.8%.

Q: And the “% inhibition of Control Values 2nd” value [7]?
A: Its value is 3.0%.

Q: And the “% inhibition of Control Values Mean” value [7]?
A: Its value is 7.9%.

Q: And the “% inhibition of Control Values 1st” value [8]?
A: Its value is −8.6%.

Q: And the “% inhibition of Control Values 2nd” value [8]?
A: Its value is −2.9%.

Q: And the “% inhibition of Control Values Mean” value [8]?
A: Its value is −5.7%.

Q: And the “% inhibition of Control Values 1st” value [9]?
A: The value was −8.6%.

Q: And the “% inhibition of Control Values 2nd” value [9]?
A: The value was −0.3%.

Q: And the “% inhibition of Control Values Mean” value [9]?
A: The value was −4.5%.

Q: What about the inhibition at 10 µM ([10]; read-out: % inhibition of Control Values 1st) of the same compound?
A: The inhibition at 10 µM was -3.1%.

Q: And the inhibition at 10 µM ([10]; read-out: % inhibition of Control Values 2nd)?
A: Its inhibition at 10 µM is 15.6%.

Q: And the inhibition at 10 µM ([10]; read-out: % inhibition of Control Values Mean)?
A: Its inhibition at 10 µM is 6.3%.

Q: And the “% inhibition of Control Values 1st” value [11]?
A: Its value is 127.6%.

Q: What about the “% inhibition of Control Values 2nd” value [11] of the same compound?
A: The value was 131.0%.

Q: And the “% inhibition of Control Values Mean” value [11]?
A: Its value is 129.3%.

Q: And the “% inhibition of Control Values 1st” value [12]?
A: The value was −4.1%.

Q: And the “% inhibition of Control Values 2nd” value [12]?
A: Its value is −5.7%.

Q: What about the “% inhibition of Control Values Mean” value [12] of the same compound?
A: The value was −4.9%.

Q: And the “% inhibition of Control Values 1st” value [13]?
A: The value was −9.4%.

Q: What about the “% inhibition of Control Values 2nd” value [13] of the same compound?
A: The value was −4.1%.

Q: And the “% inhibition of Control Values Mean” value [13]?
A: The value was −6.7%.

Q: And the “% inhibition of Control Values 1st” value [14]?
A: The value was 23.8%.

Q: And the “% inhibition of Control Values 2nd” value [14]?
A: Its value is 26.2%.

Q: What about the “% inhibition of Control Values Mean” value [14] of the same compound?
A: The value was 25.0%.

Q: What about the “% inhibition of Control Values 1st” value [15] of the same compound?
A: The value was 1.2%.

Q: And the “% inhibition of Control Values 2nd” value [15]?
A: The value was −5.1%.

Q: And the “% inhibition of Control Values Mean” value [15]?
A: The value was −1.9%.

Q: And the “% inhibition of Control Values 1st” value [16]?
A: The value was −15.1%.

Q: And the “% inhibition of Control Values 2nd” value [16]?
A: Its value is −7.9%.

Q: What about the “% inhibition of Control Values Mean” value [16] of the same compound?
A: The value was −11.5%.

Q: And the “% inhibition of Control Values 1st” value [17]?
A: The value was −17.7%.

Q: What about the “% inhibition of Control Values 2nd” value [17] of the same compound?
A: The value was −35.7%.

Q: And the “% inhibition of Control Values Mean” value [17]?
A: The value was −26.7%.

Q: And the “% inhibition of Control Values 1st” value [18]?
A: The value was 0.4%.

Q: What about the “% inhibition of Control Values 2nd” value [18] of the same compound?
A: The value was 1.5%.

Q: What about the “% inhibition of Control Values Mean” value [18] of the same compound?
A: Its value is 1.0%.

Q: And the “% inhibition of Control Values 1st” value [19]?
A: Its value is 45.3%.

Q: And the “% inhibition of Control Values 2nd” value [19]?
A: The value was 10.7%.

Q: And the “% inhibition of Control Values Mean” value [19]?
A: Its value is 28.0%.

Q: What about the “% inhibition of Control Values 1st” value [20] of the same compound?
A: The value was −2.0%.

Q: What about the “% inhibition of Control Values 2nd” value [20] of the same compound?
A: The value was 2.5%.

Q: What about the “% inhibition of Control Values Mean” value [20] of the same compound?
A: Its value is 0.2%.

Q: What about the “% inhibition of Control Values 1st” value [21] of the same compound?
A: The value was 5.2%.

Q: What about the “% inhibition of Control Values 2nd” value [21] of the same compound?
A: Its value is −0.4%.

Q: And the “% inhibition of Control Values Mean” value [21]?
A: Its value is 2.4%.
